The results in this text go back to patent publication US20080008707A1, “Denatured collagen peptides and uses thereof” (Cell-Matrix, Inc., priority 2006, published 2008).

Marks after values point to notes of the source that are not given here. Square brackets hold non-standard residues; d marks the D form. Ends that are not written are not given here. Hyp = O=C(O)[C@@H]1C[C@@H](O)CN1

In assay [1] the test system is HUI77 binding to denatured collagen IV. As to the kind of experiment: Competition ELISA: synthetic peptides blocking HUI77 binding to heat denatured collagen IV. More on the design: species or system human. The method, then:
(§1) The ELISA was conducted as follows: wells of a 96-well microtiter plate (Immulon, 4 HBX flat-bottomed, Thermo Electron Corporation, Waltham, Mass.) were coated with 100 μL/well of dn-collagen IV at 10 μg/mL in Phosphate Buffered Saline (PBS) overnight at 4° C. The plate was washed 3 times (3×) with PBS containing 0.05% (v/v) Tween-20 (PBST) using an automated plate washer.
(§2) The plate was blocked by adding 300 μL/well of 1% BSA (w/v) in PBS for 1 hour at 25° C. followed by washing 3× in PBST as above.
(§3) Solutions of D93 or HUI77 were prepared with various concentrations of peptide or antibody inhibitor and incubate for 15 minutes. D93 or HUI77 was prepared at 200 ng/mL in 1% BSA/PBS.
(§4) For antibody blocking studies using synthetic peptides: peptide inhibitor stock solutions were prepared at 2 mM, 0.2 mM, 0.02 mM, and 0.002 mM in 1% BSA/PBS. 500 μL of a 2 mM peptide solution in 1% BSA/PBS was prepared and diluted 1:10 in 500 μL a total of three times to make peptide inhibitor concentrations.
(§5) 200 μL of D93 or HUI77 at 200 ng/mL solution was combined with 200 μL of peptide or antibody inhibitor solution and incubated for 15 minutes at room temperature.
(§6) D93 or HUI77 with various concentrations of inhibitors (2 mM, 0.2 mM, 0.02 mM, and 0.002 mM) were added to microplate wells and incubated for 1 hour at 25° C. The plate was washed 3× in PBST as above.
(§7) To each microtiter plate well, 100 μL of diluted anti-human IgG or anti-mouse IgM conjugated to horseradish peroxidase (HRP) in PBST was added and incubated for one hour at 25° C.: (a) for D93: Goat anti-human IgG-HRP (Jackson ImmunoResearch, Catalog No. 109-035-088) was used at 1:20,000 and (b) for HUI77: Goat anti-mouse IgM-HRP was used at 1:4,000. Plates were washed 3× in PBST as above.
(§8) Tetramethylbenzidine (TMB) substrate (100 μL; Pierce Chemicals)) was added to wells and the plates were allowed to develop at room temperature for 15 minutes in the dark. Substrate development was stopped by adding 50 μL/well of 2N H2SO4. The microtiter […] plates were read at 450 nm within five minutes of adding the H2SO4. Reactivity was measured with a microplate reader (Molecular Devices, Sunnyvale, Calif.) at a wavelength of 450 nm and analyzed using SOFTMax® PRO4.0 (Molecular Devices). All samples were tested in triplicate.
(§9) Individual peptides with amino acid substitutions and deletions were also synthesized based on the primary and secondary peptide arrays. […] The inhibitory activity of the individual peptides was tested by ELISA as previously described to measure binding of D93 or HUI77 to denatured collagen where peptides and antibodies were prepared at a 2× concentration and pre-incubated for 15 minutes prior to adding to microtiter plates coated with dn-collagen.
(§10) 96-well plates were coated with 100 μL/well of denatured (dn) collagen IV at 10 μg/mL in phosphate buffered saline (PBS) overnight at 4° C. followed by washing the plates in an automated plate washer 3 times in PBS containing 0.05% (v/v) Tween-20 (PBST). Non-specific binding was prevented by blocking the wells by adding 300 μL/well of 1% bovine serum albumin (BSA) (w/v) in PBS for 1 hour (hr) at 25° C. The plates were washed as above.
(§11) Solutions of D93 and HUI77 antibodies were prepared with various concentrations of inhibitor and incubated for 15 minutes. Briefly, 20 mLs of D93 or HUI77 were prepared at 200 ng/mL in 1% BSA/PBS. Solutions of peptide inhibitors (2 mM, 0.2 mM, […]) were prepared in 1% BSA/PBS. Equal volumes of antibodies and peptide inhibitors were combined: 200 μL of D93 or HUI77 (200 ng/mL solution) with 200 μL of each peptide solution.
(§12) 100 μL/well of D93 or HUI77 at 100 ng/mL with various concentrations of inhibitors were added to the wells in triplicate and incubated for 1 hour at 25° C. The plates were washed as described above.
(§13) 100 μL/well of secondary horseradish peroxidase (HRP)-conjugated antibody in PBST was added to each well and incubated for 1 hour (hr) at 25° C. […]
In general terms: ELISA stands for enzyme-linked immunosorbent assay.

For assay [2], the system named is D93 binding to human denatured-collagen IV. As to the kind of experiment: Competition ELISA: synthetic peptides blocking D93 binding to heat denatured collagen IV. The method, then: as §1, §2, §3, §4, §5, §6, §7, §8, §9, §10, §11, §12, §13
Setting [3] is: peptide inhibitor concentration 10 μM, average of two studies.
Setting [4] is: peptide inhibitor concentration 100 μM, average of two studies.
Where [5] appears, read: peptide inhibitor concentration 1000 μM, average of two studies.
Setting [6] is: peptide inhibitor concentration 1 μM, average of two studies, vs 1% BSA/PBS alone.
Setting [7] is: peptide inhibitor concentration 10 μM, average of two studies, vs 1% BSA/PBS alone.
Where [8] appears, read: peptide inhibitor concentration 100 μM, average of two studies, vs 1% BSA/PBS alone.
The mark [9] stands for this setting: peptide inhibitor concentration 1000 μM, average of two studies, vs 1% BSA/PBS alone.
[10] abbreviates: peptide inhibitor concentration 10 μM, asterisk (*): data from a separate assay.
Setting [11] is: peptide inhibitor concentration 100 μM, asterisk (*): data from a separate assay.
The mark [12] stands for this setting: peptide inhibitor concentration 1000 μM, asterisk (*): data from a separate assay.

For “L-Hyp-G-F-Hyp-G (L[Hyp]GF[Hyp]G) [SEQ ID NO: 23]”, the “% INHIBITION OF BINDING OF HUI77 TO DENATURED COLLAGEN IV” value is 7% in assay [1] (setting [3]), 14.5% in assay [1] (setting [4]) and 75% in assay [1] (setting [5]). Besides, the “% INHIBITION OF BINDING OF D93 TO HUMAN DENATURED-COLLAGEN IV” value in assay [2] (setting [6]) is reported as 10.5%; in assay [2] (setting [7]) it was 6%; in assay [2] (setting [8]), 8%; in assay [2] (setting [9]), 32%.
For the substance “L-Hyp-G-P-Hyp-G (L[Hyp]GP[Hyp]G) [SEQ ID NO: 24]”, the “% INHIBITION OF BINDING OF HUI77 TO DENATURED COLLAGEN IV” value in assay [1] (setting [3]) came out at 3%; in assay [1] (setting [4]), 8%; in assay [1] (setting [5]), 64%. In addition, the “% INHIBITION OF BINDING OF D93 TO HUMAN DENATURED-COLLAGEN IV” value in assay [2] (setting [6]) is listed as 6.5%; in assay [2] (setting [7]) it was 12%; in assay [2] (setting [8]) it was 52.5%; in assay [2] (setting [9]), 90%.
Turning to “LPGFPG [SEQ ID NO: 38, reference compound]”, the results for the “% INHIBITION OF BINDING OF HUI77 TO DENATURED COLLAGEN IV” value in assay [1] (setting [10]), in assay [1] (setting [11]) and in assay [1] (setting [12]) were 10.2* %, 0* % and 3.7* %, respectively. Moreover, the “% INHIBITION OF BINDING OF D93 TO HUMAN DENATURED-COLLAGEN IV” value is given as 5.4* % in assay [2] (peptide inhibitor concentration 1 μM, asterisk (*): data from a separate assay); 7.8* % in assay [2] (setting [10]); 8.3* % in assay [2] (setting [11]); 11.6* % in assay [2] (setting [12]).
For “LPGFPGC [SEQ ID NO: 37, reference compound]”, the figures for the “% INHIBITION OF BINDING OF HUI77 TO DENATURED COLLAGEN IV” value in assay [1] (setting [3]), in assay [1] (setting [4]) and in assay [1] (setting [5]) were 7%, 7.5% and 8.5%, respectively. Further, the “% INHIBITION OF BINDING OF D93 TO HUMAN DENATURED-COLLAGEN IV” value in assay [2] (setting [6]) is 8%; in assay [2] (setting [7]), 3.5%; in assay [2] (setting [8]), 1%; in assay [2] (setting [9]), 6.5%.
For the substance LPGLPG (L[Hyp]GL[Hyp]G) [SEQ ID NO: 25], the “% INHIBITION OF BINDING OF HUI77 TO DENATURED COLLAGEN IV” value is given as 6% in assay [1] (setting [3]), 9.5% in assay [1] (setting [4]) and 17.5% in assay [1] (setting [5]). The “% INHIBITION OF BINDING OF D93 TO HUMAN DENATURED-COLLAGEN IV” value in assay [2] (setting [6]) is recorded as 8%; in assay [2] (setting [7]), 6.5%; in assay [2] (setting [8]), 6.5%; in assay [2] (setting [9]), 46.5%.
In the case of “LPGPPGPPG (LPGP[Hyp]GP[Hyp]G) [SEQ ID NO: 21]”, the “% INHIBITION OF BINDING OF HUI77 TO DENATURED COLLAGEN IV” value in assay [1] (setting [3]) worked out at 6.5%; in assay [1] (peptide inhibitor concentration 100 μM, average of two studies, listed as 20 (21), 100 µM), 18%; in assay [1] (peptide inhibitor concentration 1000 μM, average of two studies, listed as 20 (21), 1000 µM) it was 86%. Moreover, the “% INHIBITION OF BINDING OF D93 TO HUMAN DENATURED-COLLAGEN IV” value in assay [2] (peptide inhibitor concentration 1 μM, average of two studies, vs 1% BSA/PBS alone, listed as 20 (21), 1 µM) is listed as 13%; in assay [2] (peptide inhibitor concentration 10 μM, average of two studies, vs 1% BSA/PBS alone, listed as 20 (21), 10 µM), 35.5%; in assay [2] (peptide inhibitor concentration 100 μM, average of two studies, vs 1% BSA/PBS alone, listed as 20 (21), 100 µM) it was 85.5%; in assay [2] (peptide inhibitor concentration 1000 μM, average of two studies, vs 1% BSA/PBS alone, listed as 20 (21), 1000 µM) it was 92.5%.
For the substance LPGPPGPPG [SEQ ID NO: 22], the “% INHIBITION OF BINDING OF HUI77 TO DENATURED COLLAGEN IV” value in assay [1] (peptide inhibitor concentration 100 μM, average of two studies, listed as 18 (22), 100 µM) worked out at 9%; in assay [1] (peptide inhibitor concentration 1000 μM, average of two studies, listed as 18 (22), 1000 µM), 6%. Also, the “% INHIBITION OF BINDING OF D93 TO HUMAN DENATURED-COLLAGEN IV” value is listed as 6% in assay [2] (peptide inhibitor concentration 1 μM, average of two studies, vs 1% BSA/PBS alone, listed as 18 (22), 1 µM); 5% in assay [2] (peptide inhibitor concentration 10 μM, average of two studies, vs 1% BSA/PBS alone, listed as 18 (22), 10 µM); 3% in assay [2] (peptide inhibitor concentration 100 μM, average of two studies, vs 1% BSA/PBS alone, listed as 18 (22), 100 µM); 17.5% in assay [2] (peptide inhibitor concentration 1000 μM, average of two studies, vs 1% BSA/PBS alone, listed as 18 (22), 1000 µM).
For the substance “LPGPPGPPGP (LPGP[Hyp]GP[Hyp]GP) [SEQ ID NO: 20]”, the “% INHIBITION OF BINDING OF HUI77 TO DENATURED COLLAGEN IV” value is 10% in assay [1] (setting [3]), 14% in assay [1] (setting [4]) and 73% in assay [1] (setting [5]). Moreover, the “% INHIBITION OF BINDING OF D93 TO HUMAN DENATURED-COLLAGEN IV” value in assay [2] (setting [6]) was determined as 12%; in assay [2] (setting [7]), 41.5%; in assay [2] (setting [8]) it was 89%; in assay [2] (setting [9]), 92.5%.
Take LPGPPGPPGPY [SEQ ID NO: 18]: the “% INHIBITION OF BINDING OF HUI77 TO DENATURED COLLAGEN IV” value in assay [1] (peptide inhibitor concentration 10 μM, average of two studies, listed as 2 (18), 10 µM) was found to be 5.5%; in assay [1] (peptide inhibitor concentration 100 μM, average of two studies, listed as 2 (18), 100 µM), 6.5%; in assay [1] (peptide inhibitor concentration 1000 μM, average of two studies, listed as 2 (18), 1000 µM) it was 4.5%. Moreover, the “% INHIBITION OF BINDING OF D93 TO HUMAN DENATURED-COLLAGEN IV” value is on record as 6% in assay [2] (peptide inhibitor concentration 1 μM, average of two studies, vs 1% BSA/PBS alone, listed as 2 (18), 1 µM); 2% in assay [2] (peptide inhibitor concentration 10 μM, average of two studies, vs 1% BSA/PBS alone, listed as 2 (18), 10 µM); 7% in assay [2] (peptide inhibitor concentration 100 μM, average of two studies, vs 1% BSA/PBS alone, listed as 2 (18), 100 µM); 46% in assay [2] (peptide inhibitor concentration 1000 μM, average of two studies, vs 1% BSA/PBS alone, listed as 2 (18), 1000 µM).
